Reference: patent publication US12371436B2, “Substituted benzodiazoliums as ENaC inhibitors” (ENTERPRISE THERAPEUTICS LIMITED, priority 2016, dated 2025)
Structures can show the parent of a compound that is named as a salt.

Target: T1, ENaC (Homo sapiens, UniProt P37088+P51168+P51170)
T1 construct: host or cells: primary human bronchial epithelial cells (HBECs) differentiated at air-liquid interface
T1 sequence (P37088 1-669): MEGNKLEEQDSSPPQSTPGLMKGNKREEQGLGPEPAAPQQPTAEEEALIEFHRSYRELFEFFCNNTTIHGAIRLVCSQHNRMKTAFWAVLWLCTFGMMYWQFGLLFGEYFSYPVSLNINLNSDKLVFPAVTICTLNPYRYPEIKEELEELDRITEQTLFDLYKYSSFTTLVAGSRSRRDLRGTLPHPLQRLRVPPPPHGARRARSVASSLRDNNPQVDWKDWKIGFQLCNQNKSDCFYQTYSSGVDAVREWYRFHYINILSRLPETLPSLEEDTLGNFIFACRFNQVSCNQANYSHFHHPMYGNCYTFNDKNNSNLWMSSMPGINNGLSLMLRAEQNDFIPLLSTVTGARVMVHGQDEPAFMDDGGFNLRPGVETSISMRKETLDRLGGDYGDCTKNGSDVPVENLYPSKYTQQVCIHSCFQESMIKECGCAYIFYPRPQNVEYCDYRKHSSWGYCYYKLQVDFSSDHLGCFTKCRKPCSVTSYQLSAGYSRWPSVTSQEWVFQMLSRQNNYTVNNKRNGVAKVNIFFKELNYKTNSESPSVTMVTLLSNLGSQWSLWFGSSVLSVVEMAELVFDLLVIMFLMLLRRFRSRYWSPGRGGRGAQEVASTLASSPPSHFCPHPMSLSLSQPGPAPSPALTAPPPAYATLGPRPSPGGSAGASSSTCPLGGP
T1 sequence (P51168 1-640): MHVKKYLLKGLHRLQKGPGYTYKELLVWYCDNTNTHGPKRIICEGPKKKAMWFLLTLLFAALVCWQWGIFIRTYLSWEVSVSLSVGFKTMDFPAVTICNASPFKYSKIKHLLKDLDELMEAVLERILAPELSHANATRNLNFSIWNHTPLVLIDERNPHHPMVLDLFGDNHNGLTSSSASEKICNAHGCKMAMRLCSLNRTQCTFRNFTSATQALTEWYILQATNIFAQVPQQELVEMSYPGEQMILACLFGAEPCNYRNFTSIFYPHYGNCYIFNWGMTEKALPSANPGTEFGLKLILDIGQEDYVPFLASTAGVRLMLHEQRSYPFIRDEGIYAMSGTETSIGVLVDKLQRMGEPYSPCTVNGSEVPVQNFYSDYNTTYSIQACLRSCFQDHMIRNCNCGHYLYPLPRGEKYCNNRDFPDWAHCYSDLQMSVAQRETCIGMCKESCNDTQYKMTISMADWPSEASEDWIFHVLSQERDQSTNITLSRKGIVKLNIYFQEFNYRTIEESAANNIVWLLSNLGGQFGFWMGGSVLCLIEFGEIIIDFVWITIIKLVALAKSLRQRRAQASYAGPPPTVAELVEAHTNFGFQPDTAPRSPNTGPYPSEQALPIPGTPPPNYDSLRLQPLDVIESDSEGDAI
T1 sequence (P51170 1-649): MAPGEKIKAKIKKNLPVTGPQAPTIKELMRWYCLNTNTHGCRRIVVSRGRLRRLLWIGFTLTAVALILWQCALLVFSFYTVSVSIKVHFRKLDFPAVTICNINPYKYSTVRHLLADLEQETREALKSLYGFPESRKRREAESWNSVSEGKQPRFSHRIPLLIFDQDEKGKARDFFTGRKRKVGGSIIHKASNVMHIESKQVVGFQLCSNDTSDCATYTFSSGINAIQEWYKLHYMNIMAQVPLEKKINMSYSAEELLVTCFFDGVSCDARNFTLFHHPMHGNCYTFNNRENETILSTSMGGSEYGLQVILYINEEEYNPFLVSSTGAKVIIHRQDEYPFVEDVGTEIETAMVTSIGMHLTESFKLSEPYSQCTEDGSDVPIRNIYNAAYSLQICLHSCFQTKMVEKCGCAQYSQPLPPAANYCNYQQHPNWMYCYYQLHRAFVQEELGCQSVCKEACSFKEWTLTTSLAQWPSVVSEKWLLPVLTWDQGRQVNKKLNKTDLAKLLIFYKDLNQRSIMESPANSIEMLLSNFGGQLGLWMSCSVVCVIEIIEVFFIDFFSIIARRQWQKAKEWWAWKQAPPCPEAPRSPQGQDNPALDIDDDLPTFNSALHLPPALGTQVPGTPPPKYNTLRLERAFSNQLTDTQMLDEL
Assay: Short circuit current assay to determine ENaC blocker potency in human bronchial epithelial cells
Assay type: cell-based
Conditions: 50% inhibition of total amiloride-sensitive ISC, apical addition, read-out: Averages.ENaC IC50 (nM) Avg
Experimental: Example 68—Short circuit current assay to determine ENaC blocker potency in human bronchial epithelial cells
Human bronchial epithelial cells (HBECs) (Lonza, UK) were cultured using a modification of the method described by Coote et al, (2008). Cells were seeded into plastic T-75 flasks and grown in Bronchial Epithelial Cell Growth Medium (BEGM) (Lonza, UK) supplemented with bovine pituitary extract (52 ng/mL), hydrocortisone (0.5 μg/mL), human recombinant Epidermal Growth Factor (0.5 ng/mL), epinephrine (0.5 ng/mL), transferrin (10 ng/mL), insulin (5 ng/mL), retinoic acid (0.1 ng/mL), triiodothyronine (6.5 ng/mL), gentamycin (50 μg/mL) and amphotericin-B (50 ng/mL). Medium was changed every 48 hours until cells were 90% confluent. Cells were then passaged and seeded (8.25×10^5 cells/insert) onto polycarbonate Snapwell™ inserts (Costar, UK) in differentiation media containing 50% DMEM in BGEM with the same supplements as above but without triiodothyronine and a final retinoic acid concentration of 50 nM (all-trans retinoic acid; Sigma-Aldrich, UK). Cells were maintained submerged for the first 7 days in culture after which time they were exposed to an apical air interface for the remainder of the culture period. From the first day of establishment of an ALI, HBEC were fed with a DMEM:HAMS F-12 (1:1) media containing 2% Ultroser G (Pall BioSepra, France) with gentamycin (50 μg/mL) and amphotericin B (50 ng/mL). Cells were used for short-circuit current assay between days 14-21 after the establishment of the ALI. At all stages of culture, cells were maintained at 37° C. in 5% CO2 in an air incubator.
Short-Circuit Current (ISC) Measurements
Snapwell inserts were mounted in Costar Vertical Diffusion Chambers (Costar, UK) and were bathed with continuously gassed Ringer solution (5% CO2 in O2; pH 7.4) maintained at 37° C. containing (in mM): 120 NaCl, 25 NaHCO3, 3.3 KH2PO4, 0.8 K2HPO4, 1.2 CaCl2, 1.2 MgCl2 and 10 glucose. The solution osmolarity was always between 280-300 mOsm/kg H2O for all physiological salt solutions used. Cells were voltage clamped to 0 mV (model EVC4000, WPI). Transepithelial resistance (RT) was measured by applying a 2 mV pulse at 30 s intervals and calculating RT by Ohm's law. Data were recorded using a PowerLab workstation (ADlnstruments, UK).
ENaC blocker compounds were added to the apical chamber from a 1000-fold stock solution (prepared in DMSO) to achieve a cumulative concentration response in terms of the inhibition of the basal ISC. At the completion of the concentration response, a supra-maximal concentration of amiloride (10 μM) was added. The concentration of test compound that induced a 50% inhibition of the total amiloride-sensitive ISC (IC50) was calculated using GraphPad Prism v6.05. The results are presented in Table 2, from which it can be seen that the compounds of the present invention have ENaC inhibiting activity.

Structure (SMILES) | IC50
CCn1c(CNC(=O)c2nc3cc[nH]c3nc2N)[n+](CC)c2ccc(C(=O)NCCN3CCC(NC(=O)OC(C)(C)C)CC3)cc21 [Example 38, 2-[({3-amino-5H-pyrrolo[2,3-b]pyrazin-2-yl}formamido)methyl]-6-{[2-(4-{[(tert-butoxy)carbonyl]amino}piperidin-1-yl)ethyl]carbamoyl}-1,3-diethyl-1H-1,3-benzodiazol-3-ium] | 9 nM
CCn1c(CNC(=O)c2nc3cc[nH]c3nc2N)[n+](CC)c2ccc(-c3cnn(C4CCNCC4)c3)cc21 [Example 31, 2-[({3-amino-5H-pyrrolo[2,3-b]pyrazin-2-yl}formamido)methyl]-1,3-diethyl-6-[1-(piperidin-4-yl)-1H-pyrazol-4-yl]-1H-1,3-benzodiazol-3-ium] | 1 nM
CCn1c(CNC(=O)c2nc3c(C)c[nH]c3nc2N)[n+](CC)c2ccc(Cl)cc21 [Example 20, 2-[({3-amino-7-methyl-5H-pyrrolo[2,3-b]pyrazin-2-yl}formamido)methyl]-6-chloro-1,3-diethyl-1H-1,3-benzodiazol-3-ium] | 4 nM
CCn1c(CNC(=O)c2nc3cc[nH]c3nc2N)[n+](CC)c2ccc(OCCNC(=N)N)cc21 [Example 32, 2-[({3-amino-5H-pyrrolo[2,3-b]pyrazin-2-yl}formamido)methyl]-6-(2-carbamimidamidoethoxy)-1,3-diethyl-1H-1,3-benzodiazol-3-ium] | 3 nM
CCn1c(CNC(=O)c2nc3cc[nH]c3nc2N)[n+](CC)c2ccc(C(=O)NCCCN)cc21 [Example 39, 2-[({3-amino-5H-pyrrolo[2,3-b]pyrazin-2-yl}formamido)methyl]-6-[(3-aminopropyl)carbamoyl]-1,3-diethyl-1H-1,3-benzodiazol-3-ium] | 15 nM
CCn1c(CNC(=O)c2nc3cc[nH]c3nc2N)[n+](CC)c2ccc(OCCCNC(=O)OC(C)(C)C)cc21 [Example 23, 2-[({3-amino-5H-pyrrolo[2,3-b]pyrazin-2-yl}formamido)methyl]-6-(3-{[(tert-butoxy)carbonyl]amino}propoxy)-1,3-diethyl-1H-1,3-benzodiazol-3-ium] | 4 nM
CCn1c(CNC(=O)c2nc3c(C#N)c[nH]c3nc2N)[n+](CC)c2ccc(OC)cc21 [Example 67, 2-[({3-amino-7-cyano-5H-pyrrolo[2,3-b]pyrazin-2-yl}formamido)methyl]-1,3-diethyl-6-methoxy-1H-1,3-benzodiazol-3-ium formate] | 54 nM
CCn1c(CNC(=O)c2nc3cc[nH]c3nc2N)[n+](CC)c2ccc(C(=O)NCCN3CCC(N(C[C@H](O)[C@@H](O)[C@H](O)[C@H](O)CO)C[C@H](O)[C@@H](O)[C@H](O)[C@H](O)CO)CC3)cc21 [Example 51, 2-[({3-amino-5H-pyrrolo[2,3-b]pyrazin-2-yl}formamido)methyl]-6-{[2-(4-{bis[(2S,3R,4R,5R)-2,3,4,5,6-pentahydroxyhexyl]amino}piperidin-1-yl)ethyl]carbamoyl}-1,3-diethyl-1H-1,3-benzodiazol-3-ium] | 38 nM
CCn1c(CNC(=O)c2nc3c(Br)c[nH]c3nc2N)[n+](CC)c2ccc(C(=O)N3CCC(N(C[C@H](O)[C@@H](O)[C@H](O)[C@H](O)CO)C[C@H](O)[C@@H](O)[C@H](O)[C@H](O)CO)CC3)cc21 [Example 66, 2-[({3-amino-7-bromo-5H-pyrrolo[2,3-b]pyrazin-2-yl}formamido)methyl]-6-(4-{bis[(2S,3R,4R,5R)-2,3,4,5,6-pentahydroxyhexyl]amino}piperidine-1-carbonyl)-1,3-diethyl-1H-1,3-benzodiazol-3-ium] | 199 nM
CCn1c(CNC(=O)c2nc3cc[nH]c3nc2N)[n+](CC)c2ccc(C(=O)NC3CCN(C[C@H](O)[C@@H](O)[C@H](O)[C@H](O)CO)CC3)cc21 [Example 49, 2-[({3-amino-5H-pyrrolo[2,3-b]pyrazin-2-yl}formamido)methyl]-1,3-diethyl-6-({1-[(2S,3R,4R,5R)-2,3,4,5,6-pentahydroxyhexyl]piperidin-4-yl}carbamoyl)-1H-1,3-benzodiazol-3-ium] | 7 nM
CCn1c(CNC(=O)c2nc3c(Br)c[nH]c3nc2N)[n+](CC)c2ccc(C(=O)O)cc21 [Example 64, 2-[({3-amino-7-bromo-5H-pyrrolo[2,3-b]pyrazin-2-yl}formamido)methyl]-6-carboxy-1,3-diethyl-1H-1,3-benzodiazol-3-ium] | 244 nM
CCn1c(CNC(=O)c2nc3cc[nH]c3nc2N)[n+](C)c2ccc(OC(F)(F)F)cc21 [Example 6, 2-[({3-amino-5H-pyrrolo[2,3-b]pyrazin-2-yl}formamido)methyl]-1-ethyl-3-methyl-6-(trifluoromethoxy)-1H-1,3-benzodiazol-3-ium formate] | 5 nM
CCn1c(CNC(=O)c2nc3cc[nH]c3nc2N)[n+](CC(=O)O)c2ccc(OC)cc21 [Example 10, 2-[({3-amino-5H-pyrrolo[2,3-b]pyrazin-2-yl}formamido)methyl]-3-(carboxylatomethyl)-1-ethyl-6-methoxy-1H-1,3-benzodiazol-3-ium] | 199 nM
C[n+]1c(CNC(=O)c2nc3cc[nH]c3nc2N)n(Cc2ccccc2)c2ccccc21 [Example 15, 2-[({3-amino-5H-pyrrolo[2,3-b]pyrazin-2-yl}formamido)methyl]-1-benzyl-3-methyl-1H-1,3-benzodiazol-3-ium] | 198 nM
